Assay results published in patent US9833405B2, “Biodegradable microdepot delivery system for topical delivery” (Nano and Advanced Materials Institute Limited, priority 2014, dated 2017).
Where a SMILES comes first, the peptide text is derived from it. The star is where a group is joined. Palmitoyl = CCCCCCCCCCCCCCCC(=O)*

Test system: HaCaT cells
Experiment: Cell viability assay (MTT) for in vitro skin irritation of active ingredients
Assay type: cell-based, human
Conditions: for Cell viability(%): MTT
Description: HaCaT cells, a human keratinocyte cell line, are used as the in vitro model to test any irritation effect of the active ingredients used in the polymeric solution to form the microdepot delivery system of the present invention. The following is the procedures of an MTT assay for testing any skin irritation effect of the active ingredients used in the polymeric solution of the present invention: • a) 12 mM MTT stock solution is prepared by adding 1 mL of sterile PBS into one 5 mg vial of MTT (Component A) and mixed by sonication until the vial of MTT is dissolved in the PBS; • b) HaCaT cells at 5,000 cells per well are seed into a 96-well plate and incubated at 37° C. in 5% CO2 for 24 to 48 hours until the cells become adherent; • c) Culture medium in each well is removed and replaced with 100 μL of test compound (e.g., active ingredient used in the polymeric solution of the present invention); • d) 10 μL of the MTT stock solution prepared in step (a) is added to each well; a negative control containing 100 μL of culture medium and 10 μL of the MTT stock solution is also included for comparison; • e) Both test samples and negative control prepared in step (d) are incubated at 37° C. for 4 hours; • f) 25 μL of the solution is removed from each well after incubation in step (e) followed by adding 50 μL of DMSO to each well and mix thoroughly by pipette; • g) The mixture in step (f) is incubated at 37° C. for 10 minutes; • h) The mixture in each well after the incubation in step (g) is mixed again before measuring absorbance at 540 nm; • i) The mixture is subject to a spectrophotometer to measure the absorbance at 540 nm.
The cell viability of HaCaT cells with the treatment of the test compound is calculated based on the following formula:
[formula] where ^OD(1) is the absorbance of culture medium only; ^OD(2) is the absorbance of the culture medium with the cells; ^OD(3) is the absorbance of the culture medium with the test compound; and ^OD(4) is the absorbance of the culture medium with the cells and test compound.

NC(=O)c1cccnc1 [Niacinamide, reference compound]
Cell viability(%) (test compound 2%): 115% | Cell viability(%) (test compound 4%): 91.34% | Cell viability(%) (test compound 6%): 77.44% | Cell viability(%) (test compound 8%): 84.08% | Cell viability(%) (test compound 10%): 80.43% | cytotoxicity (viability higher than or equal to control) (at 2%): non-cytotoxic

CCCCCCCCCCCCCCCC(=O)N[C@@H](CCCCN)C(=O)N[C@H](C(=O)N[C@H](C(=O)N[C@@H](CCCCN)C(=O)N[C@@H](CO)C(=O)O)[C@@H](C)O)[C@@H](C)O [Pal-KTTKS] (Palmitoyl-KTTKS-OH)
Cell viability(%) (test compound 3%): 119% | Cell viability(%) (test compound 4%): 135.1% | Cell viability(%) (test compound 5%): 122.6% | Cell viability(%) (test compound 8%): 141.9% | Cell viability(%) (test compound 10%): 127.8% | cytotoxicity (viability higher than or equal to control) (concentrations ranging from 3% to 10%): non-cytotoxic

GHK-Cu
Cell viability(%) (test compound 0.2%): 135.1% | Cell viability(%) (test compound 0.5%): 139.6% | Cell viability(%) (test compound 1%): 144.6% | Cell viability(%) (test compound 2%): 132.7% | Cell viability(%) (test compound 5%): 136.1% | cytotoxicity (viability higher than or equal to control) (concentrations ranging from 0.2% to 5%): non-cytotoxic
